Source: patent publication US9186381B2, “Medicament for liver regeneration and for treatment of liver failure” (Helmholtz Zentrum Fuer Infektionsforschung GmbH, priority 2011, dated 2015)

tested on: MKK4 in the liver; assay: inhibition of MKK4 in vivo by small inhibitors administered to mice; conditions: dosage efficient for in vivo inactivation of MKK4
Protocol: In the alternative to inhibition of MKK4 activity in liver tissue by inhibitory RNA, SP600125, myricitine, Genistein, or PD98059 were used for inactivating MKK4 in the liver. Generally, SP600125, myricitine, Genistein, or PD98059 were administered to mice at a dosage efficient for in vivo inactivation of MKK4. Preferably, the dosage was efficient to inactivate at least 80%, more preferably at least 90 or 95% of mean in vivo MKK4 activity.

Question: Which results are given for `O=c1c(-c2ccc(O)cc2)coc2cc(O)cc(O)c12` [Genistein]?
Answer: liver regeneration: significant increase in liver regeneration; proliferation: increase in proliferation; protection against induced apoptosis: protection against induced apoptosis

Question: How did the liver regeneration turn out when `COc1cccc(-c2cc(=O)c3ccccc3o2)c1N` [PD98059] was run?
Answer: significant increase in liver regeneration

Question: And the proliferation?
Answer: increase in proliferation

Question: What about the “protection against induced apoptosis” value of the same molecule?
Answer: protection against induced apoptosis

Question: For `O=c1c(O)c(-c2cc(O)c(O)c(O)c2)oc2cc(O)cc(O)c12` [myricitine], which liver regeneration is on record?
Answer: significant increase in liver regeneration

Question: What about the proliferation of the same molecule?
Answer: increase in proliferation

Question: What about the “protection against induced apoptosis” value of the same molecule?
Answer: protection against induced apoptosis

target: T1, purified MKK4 protein (Homo sapiens, UniProt P45985); assay: in vitro MKK4 kinase assay, phosphorylation of substrate JNK1a1 with 32P-ATP; type: biochemical; conditions: positive control, remaining activity
T1 construct: made in house
T1 sequence (P45985 1-399): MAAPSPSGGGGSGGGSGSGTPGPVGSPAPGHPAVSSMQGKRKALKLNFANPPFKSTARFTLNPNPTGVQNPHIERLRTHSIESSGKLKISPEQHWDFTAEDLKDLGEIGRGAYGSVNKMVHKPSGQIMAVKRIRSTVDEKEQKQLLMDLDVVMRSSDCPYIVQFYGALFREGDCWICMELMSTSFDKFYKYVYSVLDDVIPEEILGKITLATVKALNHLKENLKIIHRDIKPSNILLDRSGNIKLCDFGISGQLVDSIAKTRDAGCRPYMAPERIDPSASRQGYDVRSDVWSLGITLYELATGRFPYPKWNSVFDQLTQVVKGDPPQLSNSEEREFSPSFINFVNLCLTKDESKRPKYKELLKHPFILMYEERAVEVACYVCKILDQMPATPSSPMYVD
Protocol: The inhibitory effect of compounds against MKK4 was analysed in an in vitro assay using purified MKK4 protein, e.g. obtained from a cell line that was genetically manipulated to over-express MKK4 from an expression cassette containing the nucleotide sequence SEQ ID NO: 1204 as a coding sequence and affinity purification using e.g. an antibody directed against MKK4 protein.
In the assay, purified active MKK4 protein was incubated with its substrate JNK1a1 and ^32P-labelled gATP (5 μCi, approx. 10 μM), without additional active compound, with the small inhibitory compound, or with Genistein as a positive control. For the assay, kinase assay buffer (20 mM HEPES pH 7.5; 10 mM MgCl2; 1 mg/ml BSA; 1 mM Na3VO4; 1 mM DTT) was used. An inhibitory effect of the small inhibitory compound (final concentration 50 μM) was detected as a reduction of the phosphorylation activity of MKK4 protein on its substrate JNK1a1 by measuring the amount of radioactive (^32P) phosphate in JNK1a1. Phosphorylation of JNK1a1 was measured in the presence of 2 ml scintillation cocktail per sample by using a scintillation counter (Wallac, Liquid Scintillation Counter). In this assay, Genistein gave an inhibition to approx. 80% activity compared to the assay without additional active compound.

Question: With `O=c1c(-c2ccc(O)cc2)coc2cc(O)cc(O)c12` [Genistein] as the molecule, how does the “inhibition to % activity compared to the assay without additional active compound” value read?
Answer: approx. 80%

same assay, conditions: small inhibitory compound final concentration 50 μM, 32P-gATP approx. 10 μM, value is remaining activity, read-out: Inhibition, relative activity of MKK4 compared to control (without additional compound) (%)

Question: How did the remaining activity at 50 µM turn out when `O=C(O)c1ccc2c3c(ncnc13)-c1ccccc1C2=O` [BAS00368055, 7-oxobenzo[e]perimidine-4-carboxylic acid] was run?
Answer: 66.2%

Question: With `Cn1c(O)c(C(=O)Nc2ccncc2)c(=O)c2ccccc21` [BAS00525963, 2-hydroxy-1-methyl-4-oxo-N-pyridin-4-ylquinoline-3-carboxamide] as the molecule, how does the remaining activity at 50 µM read?
Answer: 72.6%

Question: For `O=[N+]([O-])c1cccc(/C=N/c2ccc3[nH]ncc3c2)c1O` [BAS00697444, 2-(1H-indazol-5-yliminomethyl)-6-nitrophenolate], which remaining activity at 50 µM is on record?
Answer: 79%

Question: `COc1cc([N+](=O)[O-])cc(/C=N/c2ccc3[nH]ncc3c2)c1O` [BAS00697462, 2-(1H-indazol-5-yliminomethyl)-6-methoxy-4-nitrophenolate] was tested. Which remaining activity at 50 µM did it give?
Answer: 71.1%

Question: Which remaining activity at 50 µM does the source give for `COc1nc(Oc2cccc(/C=C(\C#N)c3nn(CCO)c(N)c3C#N)c2)nc(N2CCCCC2)n1` [BAS00896568, 5-amino-3-[(Z)-1-cyano-2-[3-[(4-methoxy-6-piperidin-1-yl-1,3,5-triazin-2-yl)oxy]phenyl]ethenyl]-1-(2-hydroxyethyl)pyrazole-4-carbonitrile] here?
Answer: 58.4%

Question: Which remaining activity at 50 µM does the source give for `Cc1n[nH]c(C)c1CCc1cc(O)n2ncc(C(=O)Nc3ccccc3)c2n1` [SYN22174524, 5-[2-(3,5-dimethyl-1H-pyrazol-4-yl)ethyl]-7-oxo-N-phenyl-1H-pyrazolo[1,5-a]pyrimidine-3-carboxamide] here?
Answer: 47.8%

Question: For `Cc1n[nH]c(C)c1CCc1cc(=O)n2ncc(-c3ccc(F)cc3)c2[nH]1` [SYN22174787, 5-[2-(3,5-dimethyl-1H-pyrazol-4-yl)ethyl]-3-(4-fluorophenyl)-1H-pyrazolo[1,5-a]pyrimidin-7-one], which remaining activity at 50 µM is on record?
Answer: 41.5%

Question: For `Cc1ccc(-c2cnn3c(=O)cc(CCc4c(C)n[nH]c4C)[nH]c23)cc1` [SYN22175977, 5-[2-(3,5-dimethyl-1H-pyrazol-4-yl)ethyl]-3-(4-methylphenyl)-1H-pyrazolo[1,5-a]pyrimidin-7-one], which remaining activity at 50 µM is on record?
Answer: 55.5%

Question: Which remaining activity at 50 µM does the source give for `COCc1nn2c(=O)cc(CCc3c(C)n[nH]c3C)[nH]c2c1-c1ccc(Cl)cc1` [SYN22176267, 3-(4-chlorophenyl)-5-[2-(3,5-dimethyl-1H-pyrazol-4-yl)ethyl]-2-(methoxymethyl)-1H-pyrazolo[1,5-a]pyrimidin-7-one] here?
Answer: 59.1%

Question: Which remaining activity at 50 µM does the source give for `COCc1nn2c(=O)cc(CCc3c(C)n[nH]c3C)[nH]c2c1-c1ccc(C)cc1` [SYN22176367, 5-[2-(3,5-dimethyl-1H-pyrazol-4-yl)ethyl]-2-(methoxymethyl)-3-(4-methylphenyl)-1H-pyrazolo[1,5-a]pyrimidin-7-one] here?
Answer: 49.9%

Question: For `COc1cccc(-c2nn3c(=O)cc(CCc4c(C)n[nH]c4C)[nH]c3c2C)c1` [SYN22176842, 5-[2-(3,5-dimethyl-1H-pyrazol-4-yl)ethyl]-2-(3-methoxyphenyl)-3-methyl-pyrazolo[5,1-b]pyrimidin-7-ol], which remaining activity at 50 µM is on record?
Answer: 54.9%

Question: With `COc1ccccc1-c1nn2c(=O)cc(CCc3c(C)n[nH]c3C)[nH]c2c1C` [SYN22176990, 5-[2-(3,5-dimethyl-1H-pyrazol-4-yl)ethyl]-2-(2-methoxyphenyl)-3-methyl-pyrazolo[5,1-b]pyrimidin-7-ol] as the molecule, how does the remaining activity at 50 µM read?
Answer: 58.2%

Question: For `Cc1n[nH]c(C)c1CCc1cc(=O)n2nc(C)c(-c3ccc(Cl)cc3)c2[nH]1` [SYN22177890, 3-(4-chlorophenyl)-5-[2-(3,5-dimethyl-1H-pyrazol-4-yl)ethyl]-2-methyl-1H-pyrazolo[1,5-a]pyrimidin-7-one], which remaining activity at 50 µM is on record?
Answer: 56.3%

Question: How did the remaining activity at 50 µM turn out when `Cc1ccc(NC(=O)c2cccc(N(C)C)c2)cc1NC(=O)c1ccc(O)cc1` [ZM 336372, 3-(Dimethylamino)-N-[3-[(4-hydroxybenzoyl)-amino]-4-methylphenyl]benzamide, reference compound] was run?
Answer: 54.2%
